Results published in patent publication US11324743B2, “Treatment for the non alcoholic steatohepatitis and fibrosis” (METABOLYS, priority 2016, dated 2022).

How the values were obtained:
NASH mice (STAM model) [1] = assay: In vivo study 2 to assess effects on fibrosis (STAM model); parameters: species or system C57BL/6 mice
Excerpt: (§1) The study was made on STAM model.
(§2) Pathogen-free fourteen day-pregnant C57BL/6 mice have been obtained from Japan SLC, Inc. (Japan). NASH has been established in male mice by a single subcutaneous injection of streptozotocin (Sigma, USA) after birth and feeding with a high fat diet (CLEA Japan, Japan) ad libitum after four weeks of age (day 28±2). Mice have been randomized into three groups of ten mice at six weeks of age (day 42±2), and three groups of ten mice at nine weeks of age (day 63±2), in the days before the start of treatment. Individual body weights have been measured daily during the treatment period. Food consumption has been measured twice per week during the treatment period. Survival, clinical signs and behavior of mice have been monitored daily.
The fibrosis in vivo study had 3 arms:
(§3) Group 1 (Vehicle): Ten NASH mice have been orally administered the same vehicle (0.5% methyl cellulose in water) as the mice receiving compound (1).
Group 2 (Telmisartan): Five mice have been administered the same vehicle supplemented with Telmisartan at a dose of 100 mg/kg (in 0.5% methyl cellulose in water) once daily from nine to twelve (9 to 12) weeks of age.
Group 3 (compound (1)): Ten NASH mice have been orally administered vehicle supplemented with compound (1) at a dose of 100 mg/kg (in 0.5% methyl cellulose in water) once daily from nine to twelve (9 to 12) weeks of age. The assessed parameters and histological outcome measures are described below.
(§4) The following measurements have been conducted for both in vivo studies: • Individual liver weight • Individual body weight • Plasma ALT (Alanine AminoTransferase), AST (Aspartate AminoTransferase), triglyceride, and total cholesterol have been measured by FUJI DRI-CHEM (Fujifilm, Japan) • Liver triglyceride has been quantified by Triglyceride E-test kit (Wako, Japan) • Histological analyses for liver sections (according to routine methods) • HE (Hematoxylin Eosin) staining and estimation of NAFLD Activity score (NAS) […]

NASH mice (STAM model) [2] = assay: In vivo study 1 to assess effects on NASH (STAM model); parameters: species or system C57BL/6 mice
Excerpt: as §1, §2
The NASH in vivo study had 3 arms:
as §3
Group 2 (Telmisartan): Five mice have been administered the same vehicle supplemented with Telmisartan at a dose of 100 mg/kg (in 0.5% methyl cellulose in water) once daily from six to nine (6 to 9) weeks of age.
Group 3 (compound (1)): Ten NASH mice have be orally administered vehicle supplemented with compound (1) at a dose of 100 mg/kg (in 0.5% methyl cellulose in water) once daily from six to nine (6 to 9) weeks of age. The assessed parameters and histological outcome measures are described below.
as §4

STAM animal model = details: reference compound; cited from earlier work

**Q.** With `O=C(O)CCC(=O)c1ccc(OCCN2CCN(c3ccccn3)CC2)cc1` [Compound (1)] as the compound, how does the “amount of liver triglycerides (TG)” value (NASH mice (STAM model) [1]; 100 mg/kg orally once daily from 9 to 12 weeks of age (FIG. 2)) read?
**A.** The value was “reduction”.

**Q.** What about the “amount of plasma triglycerides (TG)” value (NASH mice (STAM model) [1]; 100 mg/kg orally once daily from 9 to 12 weeks of age (FIG. 3), effect especially in study 2) of the same compound?
**A.** The value was “reduction”.

**Q.** And the “NAFLD activity score (NAS)” value (NASH mice (STAM model) [1]; 100 mg/kg orally once daily from 9 to 12 weeks of age, in comparison to both vehicle and Telmisartan)?
**A.** The value was “significant reduction”.

**Q.** What about the “amount of liver triglycerides (TG)” value (NASH mice (STAM model) [2]; 100 mg/kg orally once daily from 6 to 9 weeks of age (FIG. 2)) of the same compound?
**A.** Its value is “reduction”.

**Q.** And the “amount of plasma triglycerides (TG)” value (NASH mice (STAM model) [2]; 100 mg/kg orally once daily from 6 to 9 weeks of age (FIG. 3))?
**A.** Its value is “reduction”.

**Q.** What about the “NAFLD activity score (NAS)” value (NASH mice (STAM model) [2]; 100 mg/kg orally once daily from 6 to 9 weeks of age, in comparison to both vehicle and Telmisartan) of the same compound?
**A.** Its value is “significant reduction”.

**Q.** For `CCCc1nc2c(C)cc(-c3nc4ccccc4n3C)cc2n1Cc1ccc(-c2ccccc2C(=O)O)cc1` [Telmisartan], which “activity to treat NASH and fibrosis” value (STAM animal model) is on record?
**A.** The value was “active”.
